Experimental data published in ChEMBL document CHEMBL1201862, “PubChem BioAssay data set” (2004).
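These data come from cells grown in 96-well plates and exposed to compound for 48 hours at five concentrations. GI50 is the concentration that inhibits growth by half.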 Active and inactive are the calls of the source. No stated cut-off is given here; in the data, active = GI50 up to about 1.1 µM and inactive = higher. Where a SMILES comes first, the peptide text is derived from it. The star is where a group is joined. Cbz = O=C(OCc1ccccc1)*; Boc = CC(C)(C)OC(=O)*; Bn = c1ccc(C*)cc1

Columns and labels:
Experiment in all cases: growth of human tumour cells (NCI), 48 h
[1] = system: HCT-116
[2] = system: SN12C
[3] = system: SNB-75
[4] = system: MDA-MB-231
[5] = system: UACC-62
[6] = system: NCI/ADR-RES
[7] = system: HL-60
[8] = system: MOLT-4
[9] = system: LOX IMVI
[10] = system: OVCAR-5
[11] = system: CCRF-CEM
[12] = system: PC-3
[13] = system: MDA-N
[14] = system: Hs-578T
[15] = system: SF-268
[16] = system: OVCAR-4
[17] = system: RPMI-8226
[18] = system: CAKI-1
[19] = system: KM12
[20] = system: HOP-92

Row | SMILES | GI50 [1] | GI50 [2] | GI50 [3] | GI50 [4] | GI50 [5] | GI50 [6] | GI50 [7] | GI50 [8] | GI50 [9] | GI50 [10] | GI50 [11] | GI50 [12] | GI50 [13] | GI50 [14] | GI50 [15] | GI50 [16] | GI50 [17] | GI50 [18] | GI50 [19] | GI50 [20]
1 | CC(/C=C/c1ccccc1)=N\NC(=S)N/N=C(C)/C=C/c1ccccc1 | 4.03 µM (inactive) | 34.4 µM (inactive) | 22.5 µM (inactive) | 12.8 µM (inactive) | 26.2 µM (inactive) | 16.1 µM (inactive) | 8.67 µM (inactive) | 5.93 µM (inactive) | 11 µM (inactive) | 28.5 µM (inactive) | 6.38 µM (inactive) | 23.9 µM (inactive) | 25.5 µM (inactive) | > 100 µM (inactive) | 4.22 µM (inactive) | 5.4 µM (inactive) |  |  |  | 
2 | Cn1nc(S(N)(=O)=O)s/c1=N/C(N)=S | > 100 µM (inactive) | > 100 µM (inactive) |  | > 100 µM (inactive) | > 100 µM (inactive) | > 100 µM (inactive) | > 100 µM (inactive) | > 100 µM (inactive) | > 100 µM (inactive) | > 100 µM (inactive) | > 100 µM (inactive) |  | > 100 µM (inactive) | > 100 µM (inactive) | > 100 µM (inactive) | > 100 µM (inactive) | > 100 µM (inactive) | > 100 µM (inactive) | > 100 µM (inactive) | > 100 µM (inactive)
3 | Cc1cc2c(O)c(c1)CN(Cc1ccccc1)Cc1cc(C)cc(c1O)CN(Cc1ccccc1)Cc1cc(C)cc(c1O)CN(Cc1ccccc1)C2 | > 100 µM (inactive) | > 100 µM (inactive) | 50.8 µM (inactive) | > 100 µM (inactive) | > 100 µM (inactive) | > 100 µM (inactive) | > 100 µM (inactive) | > 100 µM (inactive) | > 100 µM (inactive) | > 100 µM (inactive) | > 100 µM (inactive) | > 100 µM (inactive) | > 100 µM (inactive) | > 100 µM (inactive) | > 100 µM (inactive) | > 100 µM (inactive) | > 100 µM (inactive) | > 100 µM (inactive) | > 100 µM (inactive) | 
4 | O=c1[nH]/c(=C/c2cccs2)c(=O)[nH]/c1=C/c1ccc(OCc2ccccc2)cn1 | 0.0494 µM (active) | 0.064 µM (active) | 0.027 µM (active) | 0.219 µM (active) | 0.0638 µM (active) | 0.0266 µM (active) | < 0.0182 µM (active) | 0.033 µM (active) | 57.1 µM (inactive) | 3.87 µM (inactive) | 0.0327 µM (active) | 0.0431 µM (active) | 0.0164 µM (active) | 0.0276 µM (active) | 0.0521 µM (active) | 0.0836 µM (active) | 0.0618 µM (active) | 0.0312 µM (active) | 0.59 µM (active) | 
5 | N#Cc1c(-c2ccccc2)nc(-c2ccccc2)sc1=S | > 100 µM (inactive) | > 100 µM (inactive) | > 100 µM (inactive) | > 100 µM (inactive) | > 100 µM (inactive) | > 100 µM (inactive) | > 100 µM (inactive) |  | > 100 µM (inactive) | > 100 µM (inactive) | 49.2 µM (inactive) |  | > 100 µM (inactive) | > 100 µM (inactive) | > 100 µM (inactive) | > 100 µM (inactive) | > 100 µM (inactive) | > 100 µM (inactive) | > 100 µM (inactive) | > 100 µM (inactive)
6 | Cc1ccc(Cc2n[nH]c(=O)n2N2C(=O)c3ccccc3C2=O)cc1 | > 100 µM (inactive) | > 100 µM (inactive) | 91.4 µM (inactive) | > 100 µM (inactive) | > 100 µM (inactive) | > 100 µM (inactive) |  | > 100 µM (inactive) | > 100 µM (inactive) | > 100 µM (inactive) | > 100 µM (inactive) | > 100 µM (inactive) | > 100 µM (inactive) | > 100 µM (inactive) |  | > 100 µM (inactive) |  | > 100 µM (inactive) | > 100 µM (inactive) | > 100 µM (inactive)
7 | CC(C)(Cc1ccccc1)N1C(=O)N1C(C)(C)Cc1ccccc1 | 40.6 µM (inactive) | 52 µM (inactive) | 32.5 µM (inactive) | 28.1 µM (inactive) | 23.8 µM (inactive) | > 100 µM (inactive) | 4.78 µM (inactive) | 18.7 µM (inactive) | 17.7 µM (inactive) | 19.9 µM (inactive) | 20.8 µM (inactive) | 47.5 µM (inactive) | 38.8 µM (inactive) | > 100 µM (inactive) | 53.2 µM (inactive) | 34.7 µM (inactive) | 16.5 µM (inactive) | > 100 µM (inactive) | > 100 µM (inactive) | 
8 | O/N=C1/C2CC3CC1(c1ccccc1)CC(/C3=N/O)/C2=N\O (stereo not drawn) | > 100 µM (inactive) | > 100 µM (inactive) | > 100 µM (inactive) | > 100 µM (inactive) | > 100 µM (inactive) |  | > 100 µM (inactive) | > 100 µM (inactive) | > 100 µM (inactive) | > 100 µM (inactive) | > 100 µM (inactive) | 95.9 µM (inactive) | > 100 µM (inactive) | > 100 µM (inactive) |  | > 100 µM (inactive) | > 100 µM (inactive) | > 100 µM (inactive) | > 100 µM (inactive) | 
9 | COc1cc(/C=C2\C(=O)N(c3ccccc3Cl)C(c3ccccc3)S2(=O)=O)cc(OC)c1OC (stereo not drawn) | 22.9 µM (inactive) | 20.8 µM (inactive) |  | 49.9 µM (inactive) | 31.9 µM (inactive) | 29.6 µM (inactive) | 28.6 µM (inactive) | 15.3 µM (inactive) | 21.7 µM (inactive) | 20.9 µM (inactive) | 16 µM (inactive) |  | 15.2 µM (inactive) | 46.5 µM (inactive) | 46.7 µM (inactive) | 57.3 µM (inactive) | 17.2 µM (inactive) | 59.7 µM (inactive) | 27.2 µM (inactive) | 41.3 µM (inactive)
10 | C=CCNC(NCC=C)=C(C(Cl)=C(Cl)Cl)[N+](=O)[O-] | 30.4 µM (inactive) | 59.2 µM (inactive) | 89.1 µM (inactive) | > 100 µM (inactive) | > 100 µM (inactive) | 43.2 µM (inactive) |  | 31.5 µM (inactive) |  | > 100 µM (inactive) | 26.5 µM (inactive) | 51.2 µM (inactive) | 32.5 µM (inactive) | 25.4 µM (inactive) | 53.8 µM (inactive) | 31.8 µM (inactive) | 49.1 µM (inactive) | 30.5 µM (inactive) | 65.5 µM (inactive) | 
11 | CC(C)(C)OC(=O)NC(Cc1ccc(OCc2ccccc2)cc1)C(=O)NC(CCCCNC(=O)OCc1ccccc1)C(=O)O (stereo not drawn) (Boc-Tyr(Bn)-Lys(Cbz)-OH; configuration not given here) | 31.3 µM (inactive) | 30.5 µM (inactive) | > 100 µM (inactive) | > 100 µM (inactive) | 20.5 µM (inactive) |  | 34.7 µM (inactive) | 28 µM (inactive) |  | > 100 µM (inactive) | > 100 µM (inactive) | 68.1 µM (inactive) | 40.1 µM (inactive) | 69.3 µM (inactive) |  |  | 32.7 µM (inactive) |  | 28.2 µM (inactive) | 16.4 µM (inactive)
